Results: patent publication US20240382629A1, “HETEROBIVALENT AND HOMOBIVALENT AGENTS TARGETING FIBROBLAST ACTIVATION PROTEIN ALPHA AND/OR PROSTATE-SPECIFIC MEMBRANE ANTIGEN” (The Johns Hopkins University, priority 2021, published 2024)

Assays:
[1] = Stability of radiotracer in PBS and bovine serum albumin; type: physicochemical; conditions: in PBS and bovine serum albumin at 37° C.
Protocol: Click chemistry was used to conjugate the FAP and PSMA targeting moieties with the selected linker. Radiolabeling employed a rapid microwave-assisted method to generate ^64Cu-FP-L1 in nearly quantitative yield. High-performance liquid chromatography (HPLC) was used to remove unreacted ligand to ensure high specific radioactivity (>19 MBq/nmol). ^64Cu-FP-L1 was stable for at least 4 h in PBS and bovine serum albumin at 37° C.

[2] = system: PSMA+ PC3 PIP tumor; experiment: PET imaging and biodistribution in PSMA+ PC3 PIP tumor-bearing mice; type: in vivo, mouse
Protocol: Cell uptake assays, flow cytometry, and IHC were performed as described previously. […] PET imaging and biodistribution Sequential PET imaging and biodistribution studies were conducted to quantify and validate PET imaging data. Briefly, tumor-bearing mice were administrated approximately 7.4 MBq of radiotracer in 150 μL saline via tail-vein injection. They were randomized into the indicated groups of 3-4 mice before radiotracer injection.

[3] = system: U87 tumor; experiment: PET imaging and tissue biodistribution in U87 tumor-bearing mice; type: in vivo, mouse; conditions: for Biodistribution: Bladder / Biodistribution: Blood / Biodistribution: Bone / Biodistribution: Fat / Biodistribution: Heart / Biodistribution: Kidney / Biodistribution: Lac.gl / Biodistribution: Liver / Biodistribution: Lung / Biodistribution: Muscle / Biodistribution: Pancreas / Biodistribution: Sal.gl / Biodistribution: Sm.in / Biodistribution: Spleen / Biodistribution: Stomach / Biodistribution: Tumor: in %ID/g
Protocol: Cell uptake assays, flow cytometry, and IHC were performed as described previously. Banerjee et al., 2019; Nimmagadda et al., 2018. PET imaging and biodistribution Sequential PET imaging and biodistribution studies were conducted to quantify and validate PET imaging data. Briefly, tumor-bearing mice were administrated approximately 7.4 MBq of radiotracer in 150 μL saline via tail-vein injection. They were randomized into the indicated groups of 3-4 mice before radiotracer injection.
In Experiment 1, bilateral xenografts of U87 (right flank) and PSMA+ PC3 PIP (left flank) tumors were established in male NSG mice (n=3), which underwent imaging followed by biodistribution over 24 h. […] A biodistribution study was further conducted with U87 tumors at 2 h post-injection (n=3) to compare the tissue distribution properties of ^64Cu-FP-L1 and ^64Cu-FAPI-04.

[4] = 2 h, blocking with FAPI-04 (500 nmol/kg)
[5] = blocking with ZJ43 (500 nmol/kg)
[6] = 1 h, NSG mice, U87 tumor, n=3-4
[7] = 1 h block, 10 nmol FAPI-04, NSG mice, U87 tumor
[8] = 2 h (n = 4), NSG mice, U87 tumor

Structure (SMILES): N#C[C@@H]1CCCN1C(=O)CNC(=O)c1ccnc2ccc(OCCCNC(=O)CCc3cn(CCOCCOCCOCCC(=O)N[C@@H](CCCCNC(=O)CN4CCN(CC(=O)O)CCN(CC(=O)O)CC4)C(=O)NCCCCC(=O)N(CCCC[C@H](NC(=O)N[C@@H](CCC(=O)O)C(=O)O)C(=O)O)Cc4ccc(Br)cc4)nn3)cc12 [^64Cu-FP-L1, metal not drawn]
- Stability (stable for at least) [1]: at least 4 h
- Uptake in PSMA+ PC3 PIP tumor ([2]; 2 h): 12.06±0.78 % ID/g
- Uptake in PSMA+ PC3 PIP tumors with FAP blockade [2, 4]: 18.56±2.02 % ID/g
- Uptake in PSMA+ PC3 PIP tumor ([2]; 4 h): 18.89±3.95 % ID/g
- Uptake in PSMA+ PC3 PIP tumor ([2]; 24 h): 10.51±1.82 % ID/g
- Fold lower kidney uptake with ZJ43 vs unblocked ([2]; ZJ43 (500 nmol/kg)): > 2 fold
- Kidney uptake with PSMA blockade [2, 5]: 2.97±0.23 % ID/g
- Uptake in PSMA+ PIP tumor with PSMA blockade [2, 5]: 7.48±0.5 % ID/g
- Tumor uptake and retention in PSMA+PC3 PIP tumor ([2]; from 1 to 24 h post-injection): > 10 % injected dose per gram of tissue
- Kidney uptake, unblocked agent ([2]; unblocked): 8.03±0.89 % ID/g
- Biodistribution: Bladder [3, 6]: 2.41 ± 0.62
- Biodistribution: Blood [3, 6]: 10.12 ± 3.23
- Biodistribution: Bone [3, 6]: 4.17 ± 0.13
- Biodistribution: Fat [3, 6]: 0.77 ± 0.12
- Biodistribution: Heart [3, 6]: 3.42 ± 2.73
- Biodistribution: Kidney [3, 6]: 21.58 ± 5.33
- Biodistribution: Lac.gl [3, 6]: 5.47 ± 4.13
- Biodistribution: Liver [3, 6]: 5.35 ± 0.43
- Biodistribution: Lung [3, 6]: 5.32 ± 1.42
- Biodistribution: Muscle [3, 6]: 2.29 ± 0.08
- Biodistribution: Pancreas [3, 6]: 7.17 ± 1.19
- Biodistribution: Sal.gl [3, 6]: 12.01 ± 3.62
- Biodistribution: Sm.in [3, 6]: 4.22 ± 1.78
- Biodistribution: Spleen [3, 6]: 2.20 ± 0.54
- Biodistribution: Stomach [3, 6]: 2.51 ± 0.25
- Biodistribution: Tumor [3, 6]: 12.04 ± 2.39
- Biodistribution: Bladder [3, 7]: 1.22 ± 0.15
- Biodistribution: Blood [3, 7]: 1.38 ± 0.19
- Biodistribution: Bone [3, 7]: 0.72 ± 0.08
- Biodistribution: Fat [3, 7]: 0.31 ± 0.04
- Biodistribution: Heart [3, 7]: 0.94 ± 0.35
- Biodistribution: Kidney [3, 7]: 6.09 ± 0.18
- Biodistribution: Lac.gl [3, 7]: 1.48 ± 0.45
- Biodistribution: Liver [3, 7]: 6.19 ± 1.06
- Biodistribution: Lung [3, 7]: 2.63 ± 0.27
- Biodistribution: Muscle [3, 7]: 0.38 ± 0.05
- Biodistribution: Pancreas [3, 7]: 1.01 ± 0.10
- Biodistribution: Sal.gl [3, 7]: 2.00 ± 0.19
- Biodistribution: Sm.in [3, 7]: 3.00 ± 0.22
- Biodistribution: Spleen [3, 7]: 1.55 ± 0.07
- Biodistribution: Stomach [3, 7]: 1.96 ± 0.07
- Biodistribution: Tumor [3, 7]: 4.37 ± 0.70
- Biodistribution: Bladder [3, 8]: 2.68 ± 0.83
- Biodistribution: Blood [3, 8]: 9.93 ± 2.13
- Biodistribution: Bone [3, 8]: 5.36 ± 1.89
- Biodistribution: Fat [3, 8]: 0.66 ± 0.52
- Biodistribution: Heart [3, 8]: 4.62 ± 0.68
- Biodistribution: Kidney [3, 8]: 26.85 ± 7.39
- Biodistribution: Lac.gl [3, 8]: 8.11 ± 1.24
- Biodistribution: Liver [3, 8]: 6.15 ± 0.65
- Biodistribution: Lung [3, 8]: 5.65 ± 1.54
- Biodistribution: Muscle [3, 8]: 2.10 ± 0.13
- Biodistribution: Pancreas [3, 8]: 5.98 ± 0.58
- Biodistribution: Sal.gl [3, 8]: 8.96 ± 1.47
- Biodistribution: Sm.in [3, 8]: 6.12 ± 1.91
- Biodistribution: Spleen [3, 8]: 2.68 ± 0.62
- Biodistribution: Stomach [3, 8]: 2.19 ± 0.33
- Biodistribution: Tumor [3, 8]: 14.65 ± 3.68
- Tumor uptake, FAP+ U87 tumor ([3]; 2 h, bilateral U87 / PSMA+ PC3 PIP model): 16.96±5.01 % ID/g
- Uptake in U87 tumor with FAP blockade [3, 4]: 2.47±0.82 % ID/g
- Biodistribution: Bladder ([3]; 2 h Nude mice (n = 4)): 1.80 ± 0.24
- Biodistribution: Blood ([3]; 2 h Nude mice (n = 4)): 6.50 ± 1.05
- Biodistribution: Bone ([3]; 2 h Nude mice (n = 4)): 3.51 ± 0.45
- Biodistribution: Fat ([3]; 2 h Nude mice (n = 4)): 0.86 ± 0.03
- Biodistribution: Heart ([3]; 2 h Nude mice (n = 4)): 2.77 ± 0.25
- Biodistribution: Kidney ([3]; 2 h Nude mice (n = 4)): 11.66 ± 0.95
- Biodistribution: Lac.gl ([3]; 2 h Nude mice (n = 4)): 5.44 ± 0.78
- Biodistribution: Liver ([3]; 2 h Nude mice (n = 4)): 4.16 ± 0.66
- Biodistribution: Lung ([3]; 2 h Nude mice (n = 4)): 4.37 ± 0.48
- Biodistribution: Muscle ([3]; 2 h Nude mice (n = 4)): 1.80 ± 0.26
- Biodistribution: Pancreas ([3]; 2 h Nude mice (n = 4)): 5.04 ± 0.36
- Biodistribution: Sal.gl ([3]; 2 h Nude mice (n = 4)): 5.60 ± 0.94
